Reference: patent US20230190754A1, “Therapeutic combinations for the treatment of Progressive Fibrosing interstitial lung diseases” (Boehringer Ingelheim International GmbH, priority 2021, published 2023)
Marks after values point to notes of the source that are not given here.

Tested on: IPF patients
Assay: Phase II clinical trial in IPF patients: Treatment Emergent Adverse Events (safety/tolerability), up to 13 weeks
[1] = Non-AF-group, 18 mg b.i.d., listed as Compound of Formula III
[2] = Non-AF-group, 18 mg b.i.d., listed as active agent

## [O-][S@+]1CCc2nc(N3CCC(c4ncc(Cl)cn4)CC3)nc(NC3(CO)CCC3)c21 [Comp. of form. III]
Non-AF-group, 18 mg b.i.d.
  AE: Decreased appetite, patients %: (2.1) %
  AE: Decreased appetite, patients n: 1
  AE: Diarrhoea, patients %: 16.7%
  AE: Diarrhoea, patients n: 8
  AE: Dizziness, patients %: (2.1) %
  AE: Dizziness, patients n: 1
  AE: Dyspepsia, patients %: (6.3) %
  AE: Dyspepsia, patients n: 3
  AE: Dyspnoea, patients %: (6.3) %
  AE: Dyspnoea, patients n: 3
  AE: Fatigue, patients %: (4.2) %
  AE: Fatigue, patients n: 2
  AE: Flatulence, patients %: (6.3) %
  AE: Flatulence, patients n: 3
  AE: Gastrointestinal disorders, patients %: (27.1) %
  AE: Gastrointestinal disorders, patients n: 13
  AE: General disorders and administration site conditions, patients %: (18.8) %
  AE: General disorders and administration site conditions, patients n: 9
  AE: Headache, patients %: (6.3) %
  AE: Headache, patients n: 3
  AE: Infections and infestations, patients %: (14.6) %
  AE: Infections and infestations, patients n: 7
  AE: Investigations, patients %: (10.4) %
  AE: Investigations, patients n: 5
  AE: Metabolism and nutrition disorders, patients %: (2.1) %
  AE: Metabolism and nutrition disorders, patients n: 1
  AE: Musculoskeletal and connective tissue disorders, patients %: (4.2) %
  AE: Musculoskeletal and connective tissue disorders, patients n: 2
  AE: Nausea, patients %: (4.2) %
  AE: Nausea, patients n: 2
  AE: Nervous system disorders, patients %: (8.3) %
  AE: Nervous system disorders, patients n: 4
  AE: Oedema peripheral, patients %: (2.1) %
  AE: Oedema peripheral, patients n: 1
  AE: Pyrexia, patients %: (2.1) %
  AE: Pyrexia, patients n: 1
  AE: Respiratory, thoracic and mediastinal disorders, patients %: (16.7) %
  AE: Respiratory, thoracic and mediastinal disorders, patients n: 8
  AE: Rhinorrhoea, patients %: (2.1) %
  AE: Rhinorrhoea, patients n: 1
  AE: Vomiting, patients %: (2.1) %
  AE: Vomiting, patients n: 1
  AE: Weight decreased, patients %: (4.2) %
  AE: Weight decreased, patients n: 2
  AEs leading to discontinuation of trial drug, patients %: (6.3) %
  AEs leading to discontinuation of trial drug, patients n: 3
  Any AE, patients n: 31
  Gastrointestinal disorders leading to discontinuation of trial treatment, patients n: 1
  SAE: COPD, patients %: (2.1) %
  SAE: COPD, patients n: 1
  SAE: Cardiac disorders, patients %: (2.1) %
  SAE: Cardiac disorders, patients n: 1
  SAE: Cardiac failure congestive, patients %: (2.1) %
  SAE: Cardiac failure congestive, patients n: 1
  SAE: Covid-19 pneumonia (fatal event), patients %: (2.1)* %
  SAE: Covid-19 pneumonia (fatal event), patients n: 1
  SAE: Dyspnoea, patients %: (2.1) %
  SAE: Dyspnoea, patients n: 1
  SAE: Infections and Infestations, patients %: (2.1) %
  SAE: Infections and Infestations, patients n: 1
  SAE: Lung neoplasm, patients %: (2.1) %
  SAE: Lung neoplasm, patients n: 1
  SAE: Neoplasms benign, malignant and unspecified, patients %: (2.1) %
  SAE: Neoplasms benign, malignant and unspecified, patients n: 1
  SAE: Respiratory, thoracic and mediastinal disorders, patients %: (2.1) %
  SAE: Respiratory, thoracic and mediastinal disorders, patients n: 1
  Serious AEs (patients with ≥1 SAE), patients %: (6.3) %
  Serious AEs (patients with ≥1 SAE), patients n: 3
  Severe AEs, patients %: (4.2) %
  Severe AEs, patients n: 2
  Vomiting leading to discontinuation of trial treatment, patients %: (2.1) %
  Vomiting leading to discontinuation of trial treatment, patients n: 1
[1]
  AE: Diarrhoea, patients %: (16.7) %
  Any AE, patients %: (64.6) %
  Gastrointestinal disorders leading to discontinuation of trial treatment, patients %: (2.1) %
[2]
  AE: Diarrhoea, patients %: 16.7%
  Any AE, patients %: 64.6%
  Gastrointestinal disorders leading to discontinuation of trial treatment, patients %: 2.1%
Total, N = 97
  Abdominal Pain, %: (2.1) %
  Arthralgia, %: (2.1) %
  Asthenia, %: (4.1) %
  Bronchitis, %: (2.1) %
  Condition aggravated, %: (2.1) %
  Constipation, %: (3.1) %
  Cough, %: (7.2) %
  Decreased appetite, %: (3.1) %
  Diarrhoea, %: (23.7) %
  Dizziness, %: (2.1) %
  Dyspepsia, %: (5.2) %
  Dyspnoea, %: (3.1) %
  Fatigue, %: (3.1) %
  Flatulence, %: (5.2) %
  Gastrointestinal disorders, %: (32.0) %
  General Disorders and Administration Side conditions, %: (16.5) %
  Headache, %: (6.2) %
  Infections and infestations, %: (14.4) %
  Investigations, %: (15.5) %
  Metabolism and nutrition disorders, %: (4.1) %
  Musculoskeletal and connective tissue disorders, %: (5.2) %
  Nasopharyngitis, %: (4.1) %
  Nausea, %: (3.1) %
  Nervous system disorders, %: (13.4) %
  Oedema peripheral, %: (2.1) %
  Pyrexia, %: (2.1) %
  Respiratory, thoracic and mediastinal disorders, %: (14.4) %
  Rhinorrhoea, %: (2.1) %
  Vomiting, %: (3.1) %
  Weight decreased, %: (3.1) %
